The record followed here is patent US10457707B2, “Substituted urea depsipeptide analogs as activators of the CLPP endopeptidase” (priority 2015, dated 2019).

Assay type in all cases: cell-based
Assay [1] deals with Streptococcus pneumoniae, R6. The experiment in a line: Minimal inhibitory concentration assay. The conditions noted are these: read-out: Minimal Inhibitory Concentrations S. pneumoniae R6. On the procedure: It is understood, that in various aspects, the MIC is determined by a microbroth dilution method. […] In a still further aspect, the MIC is determined by a microbroth dilution method using Staphylococcus aureus, NRS70. […] In an even further aspect, the MIC is determined by a microbroth dilution method using Streptococcus pneumoniae, DAW27. […] In an even further aspect, the MIC is determined using Staphylococcus aureus, USA 300. In a still further aspect, the MIC is determined using Streptococcus pneumoniae, R6. In a further aspect, the MIC is determined using Staphylococcus aureus, USA 300 and compared to the MIC determined using Staphylococcus aureus, USA 300 wherein ClpP is inactivated, thus allowing confirmation that killing is via a ClpP-dependent pathway.
Two fold serial dilutions of test compound in 100 μL of the appropriate broth media were first prepared in 96-well round bottom microtiter plates (Nalgene Nunc International, Rochester, N.Y., USA). […] The plates were then incubated aerobically at 37° C. All strains were incubated overnight. After incubations, in all cases the MIC was recorded as the lowest concentration of drug that prevented bacterial growth. The bacterial strains for which MIC was determined as described in Table 4.

In assay [2] the test system is Staphylococcus aureus, USA 300. The experiment in a line: Minimal inhibitory concentration assay. The conditions noted are these: USA300, read-out: Minimal Inhibitory Concentrations S. aureus USA 300. Here is the method:
(§1) It is understood, that in various aspects, the MIC is determined by a microbroth dilution method. In a further aspect, the MIC is determined by a microbroth dilution method using Staphylococcus aureus, ATCC 29213. In a still further aspect, the MIC is determined by a microbroth dilution method using Staphylococcus aureus, NRS70. In a yet further aspect, the MIC is determined by a microbroth dilution method using Streptococcus pyogenes, ATCC 700294. In an even further aspect, the MIC is determined by a microbroth dilution method using Streptococcus pneumoniae, DAW27. In a still further aspect, the MIC is determined by a microbroth dilution method using Bacillus subtilis, ATCC 23857. In a yet further aspect, the MIC is determined by a microbroth dilution method using Enterococcus faecalis, ATCC 33186. In an even further aspect, the MIC is determined using Staphylococcus aureus, USA 300. In a still further aspect, the MIC is determined using Streptococcus pneumoniae, R6. In a further aspect, the MIC is determined using Staphylococcus aureus, USA 300 and compared to the MIC determined using Staphylococcus aureus, USA 300 wherein ClpP is inactivated, thus allowing confirmation that killing is via a ClpP-dependent pathway.
(§2) Minimal inhibitory concentrations (“MICs”) were determined using the microbroth dilution method according to Clinical Laboratory Standards Institute (CLSI; National, C.F. C. L. S., Methods for Dilution Antimicrobial Susceptibility Tests for Bacteria Grow aerobically-Seventh Edition: Approved Standard M7-A7, CLSI, Wayne, Pa., USA, 2008) and were read by visual inspection. Two fold serial dilutions of test compound in 100 μL of the appropriate broth media were first prepared in 96-well round bottom microtiter plates (Nalgene Nunc International, Rochester, N.Y., USA). An equivalent volume (100 μL) of bacterial broth inocula containing approximately 10^5 bacterial cfu/mL was added to each well to give final concentrations of test compound starting at 200 μM. The plates were then incubated aerobically at 37° C. All strains were incubated overnight. After incubations, in all cases the MIC was recorded as the lowest concentration of drug that prevented bacterial growth. The bacterial strains for which MIC was determined as described in Table 4.

The subject of assay [3] is Staphylococcus aureus, USA 300 wherein ClpP is inactivated. Nature of the assay: Minimal inhibitory concentration assay. On the procedure: as §1, §2
Assay [4] concerns Streptococcus pyogenes, ATCC 700294. Nature of the assay: Minimal inhibitory concentration assay (microbroth dilution). On the procedure: as §1
Minimal inhibitory concentrations (“MICs”) were determined using the microbroth dilution method according to Clinical Laboratory Standards Institute (CLSI; National, C.F. C. L. S., Methods for Dilution Antimicrobial Susceptibility Tests for Bacteria Grow aerobically-Seventh Edition: Approved Standard M7-A7, CLSI, Wayne, Pa., USA, 2008) and were read by visual inspection. Two fold serial dilutions of test compound in 100 μL of the appropriate broth media were first prepared in 96-well round bottom microtiter plates (Nalgene Nunc International, Rochester, N.Y., USA). […] The plates were then incubated aerobically at 37° C. All strains were incubated overnight. After incubations, in all cases the MIC was recorded as the lowest concentration of drug that prevented bacterial growth. The bacterial strains for which MIC was determined as described in Table 4.

The test system of assay [5] is Staphylococcus aureus, NRS70. The assay is described as above. Here is the method:
as §1, §2

Assay [6] relates to Bacillus subtilis, ATCC 23857. The description is as above. On the procedure:
as §1, §2

Assay [7] relates to Staphylococcus aureus, ATCC 29213. The assay is described as above. The conditions noted are these: ATCC29213, read-out: Minimal Inhibitory Concentrations S. aureus ATCC 29213. Here is the method: as §1, §2
Where [8] appears, read: Streptococcus pyogenes, ATCC700294, read-out: Minimal Inhibitory Concentrations S. pyogenes ATCC 700294.
Setting [9] is: Staphylococcus aureus, NRS70, read-out: Minimal Inhibitory Concentrations S. aureus NRS70.
[10] abbreviates: Bacillus subtilis, ATCC23857, read-out: Minimal Inhibitory Concentrations B. subtilis ATCC 23857.
Setting [11] is: Streptococcus pyogenes, ATCC700294; read-out: Minimal Inhibitory Concentrations S. pyogenes ATCC 700294.
[12] abbreviates: Staphylococcus aureus, NRS70; read-out: Minimal Inhibitory Concentrations S. aureus NRS70.
Setting [13] is: Bacillus subtilis, ATCC23857; read-out: Minimal Inhibitory Concentrations B. subtilis ATCC 23857.

Values after ≈ are worked out from the molar mass of the structure shown. Where two headings read alike, the source gives them in different places. *1 amine or outer side, *2 acyl side, *3 side chain or, on linkers, in order; H or OH if unused. Where a SMILES comes first, the peptide text is derived from it. Bridges are numbered along the chain shown (N, C = ends). [ ]: non-standard residue; d: D form. The star is where a group is joined. ξ: configuration not given here. NH(1,3-benzodioxol-5-yl) = c1cc2c(cc1N*)OCO2; Phe(3,5-F2) = N[C@@H](Cc1cc(F)cc(F)c1)C(=O)O; Pro(4R-Me) = C[C@H]1CN[C@H](C(=O)O)C1; X11 = O=C(C1C[C@@H](F)CN1[*:1])[*:2]; X10 = O=C(C1C[C@H](F)CN1[*:1])[*:2]; X9 = CC1(C)CC(C(=O)[*:2])N([*:1])C1; NMeT = CN[C@H](C(=O)O)[C@@H](C)O; NH(4-Me-phenyl) = Cc1ccc(N*)cc1; aThr = C[C@H](O)[C@H](N)C(=O)O; Pip = O=C(O)[C@@H]1CCCCN1; ξPip = O=C(O)C1CCCCN1; CO = O=C([*:1])[*:2]; ξP = O=C(O)C1CCCN1

With `Cc1ccc(NC(=O)N[C@@H](Cc2cc(F)cc(F)c2)C(=O)N[C@H]2COC(=O)C3C[C@H](C)CN3C(=O)[C@H](C)NC(=O)C3CCCCN3C(=O)C3CCCN3C2=O)cc1C` (stereo partly drawn) [Compound 48, (S)-3-(3,5-difluorophenyl)-N-((2S,6S,8aS,14aS,20S,23aS)-2,6-dimethyl-5,8,14,19,23-pentaoxooctadecahydro-1H,5H,14H,19H-pyrido[2,1-i]dipyrrolo[2,1-c:2′,1′-l][1]oxa[4,7,10,13]tetraazacyclohexadecin-20-yl)-2-(3-(3,4-dimethylphenyl)ureido)propanamide], the MIC was found to be 0.8 µM (≈ 0.646 µg/mL) in assay [1]; 1.6 µM (≈ 1.29 µg/mL) in assay [2]; 3.1 µM (≈ 2.5 µg/mL) in assay [4] (setting [8]); 0.4 µM (≈ 0.323 µg/mL) in assay [5] (setting [9]); 0.2 µM (≈ 0.162 µg/mL) in assay [6] (setting [10]); 1.6 µM (≈ 1.29 µg/mL) in assay [7]. Besides, in assay [3], the “Minimal Inhibitory Concentrations S. aureus USA 300 ΔClpP” value turned out to be 200 µM.
Consider `Cc1ccc(NC(=O)N[C@@H](Cc2cc(F)cc(F)c2)C(=O)N[C@H]2COC(=O)C3CC(C)(C)CN3C(=O)[C@H](C)NC(=O)C3CCCCN3C(=O)C3CCCN3C2=O)cc1` (stereo partly drawn) [Compound 49, (S)-3-(3,5-difluorophenyl)-2-(3-(p-tolyl)ureido)-N-((6S,8aS,14aS,20S,23aS)-2,2,6-trimethyl-5,8,14,19,23-pentaoxooctadecahydro-1H,5H,14H,19H-pyrido[2,1-i]dipyrrolo[2,1-c:2′,1′-l][1]oxa[4,7,10,13]tetraazacyclohexadecin-20-yl)propanamide] ({NH(4-Me-phenyl)-CO}-[Phe(3,5-F2)]S[ξP][ξPip]A[X9]; ester 2-C), for which the MIC was 6.3 µM (≈ 5.09 µg/mL) in assay [1]; 25 µM (≈ 20.2 µg/mL) in assay [2]; 25 µM (≈ 20.2 µg/mL) in assay [4] (setting [8]); 12.5 µM (≈ 10.1 µg/mL) in assay [5] (setting [9]); 0.4 µM (≈ 0.323 µg/mL) in assay [6] (setting [10]); 12.5 µM (≈ 10.1 µg/mL) in assay [7]. Moreover, the “Minimal Inhibitory Concentrations S. aureus USA 300 ΔClpP” value in assay [3] came to 100 µM.
In the case of `Cc1ccc(NC(=O)N[C@@H](Cc2cc(F)cc(F)c2)C(=O)N[C@H]2COC(=O)C3C[C@H](F)CN3C(=O)[C@H](C)NC(=O)C3CCCCN3C(=O)C3CCCN3C2=O)cc1` (stereo partly drawn) [Compound 50, (S)-3-(3,5-difluorophenyl)-N-((2S,6S,8aS,14aS,20S,23aS)-2-fluoro-6-methyl-5,8,14,19,23-pentaoxooctadecahydro-1H,5H,14H,19H-pyrido[2,1-i]dipyrrolo[2,1-c:2′,1′-l][1]oxa[4,7,10,13]tetraazacyclohexadecin-20-yl)-2-(3-(p-tolyl)ureido)propanamide] ({NH(4-Me-phenyl)-CO}-[Phe(3,5-F2)]S[ξP][ξPip]A[X10]; ester 2-C), the MIC is 0.8 µM (≈ 0.638 µg/mL) in assay [1]; 3.1 µM (≈ 2.47 µg/mL) in assay [2]; 1.6 µM (≈ 1.28 µg/mL) in assay [4] (setting [8]); 1.6 µM (≈ 1.28 µg/mL) in assay [5] (setting [9]); more than 200 µM in assay [6] (setting [10]); 3.1 µM (≈ 2.47 µg/mL) in assay [7]. In addition, in assay [3], the “Minimal Inhibitory Concentrations S. aureus USA 300 ΔClpP” value is more than 200 µM.
For the compound `Cc1ccc(NC(=O)N[C@@H](Cc2cc(F)cc(F)c2)C(=O)N[C@H]2COC(=O)C3C[C@@H](F)CN3C(=O)[C@H](C)NC(=O)C3CCCCN3C(=O)C3CCCN3C2=O)cc1` (stereo partly drawn) [Compound 51, (S)-3-(3,5-difluorophenyl)-N-((2R,6S,8aS,14aS,20S,23aS)-2-fluoro-6-methyl-5,8,14,19,23-pentaoxooctadecahydro-1H,5H,14H,19H-pyrido[2,1-i]dipyrrolo[2,1-c:2′,1′-l][1]oxa[4,7,10,13]tetraazacyclohexadecin-20-yl)-2-(3-(p-tolyl)ureido)propanamide] ({NH(4-Me-phenyl)-CO}-[Phe(3,5-F2)]S[ξP][ξPip]A[X11]; ester 2-C), the MIC in assay [1] was 6.3 µM (≈ 5.03 µg/mL); in assay [2] it was 12.5 µM (≈ 9.97 µg/mL); in assay [4] (setting [8]), 12.5 µM (≈ 9.97 µg/mL); in assay [5] (setting [9]), 6.3 µM (≈ 5.03 µg/mL); in assay [6] (setting [10]), more than 200 µM; in assay [7], 12.5 µM (≈ 9.97 µg/mL). For the same compound, the “Minimal Inhibitory Concentrations S. aureus USA 300 ΔClpP” value in assay [3] is more than 200 µM.
On to `C[C@@H]1C[C@H]2C(=O)O[C@@H](C)[C@H](NC(=O)[C@H](Cc3cc(F)cc(F)c3)NC(=O)Nc3ccc4c(c3)OCO4)C(=O)N3CCC[C@H]3C(=O)N(C)[C@@H]([C@@H](C)O)C(=O)N[C@@H](C)C(=O)N2C1` [Compound 197, (S)-2-(3-(benzo[d][1,3]dioxol-5-yl)ureido)-3-(3,5-difluorophenyl)-N-((2R,6S,9S,11aS,17S,18S,20aS)-9-((R)-1-hydroxyethyl)-2,6,10,18-tetramethyl-5,8,11,16,20-pentaoxohexadecahydro-1H,5H,16H-dipyrrolo[2,1-c:2′,1′-l][1]oxa[4,7,10,13]tetraazacyclohexadecin-17-yl)propanamide] ({NH(1,3-benzodioxol-5-yl)-CO}-[Phe(3,5-F2)][aThr]P[NMeT]A[Pro(4R-Me)]; ester 2-C), for which the MIC in assay [1] was less than 0.02 µM; in assay [2], 0.078 µM (≈ 0.0657 µg/mL); in assay [4] (setting [11]), 0.039 µM (≈ 0.0328 µg/mL); in assay [5] (setting [12]), 0.039 µM (≈ 0.0328 µg/mL); in assay [6] (setting [13]), less than 0.02 µM; in assay [7], 0.039 µM (≈ 0.0328 µg/mL). The “Minimal Inhibitory Concentrations S. aureus USA 300 ΔClpP” value in assay [3] is more than 20 µM.
`C[C@@H]1C[C@H]2C(=O)O[C@@H](C)[C@H](NC(=O)[C@H](Cc3cc(F)cc(F)c3)NC(=O)Nc3ccc4c(c3)OCO4)C(=O)N3CCC[C@H]3C(=O)N3CCCC[C@H]3C(=O)N[C@@H](C)C(=O)N2C1` [Compound 198, (S)-2-(3-(benzo[d][1,3]dioxol-5-yl)ureido)-3-(3,5-difluorophenyl)-N-((2R,6S,8aS,14aS,20S,21S,23aS)-2,6,21-trimethyl-5,8,14,19,23-pentaoxooctadecahydro-1H,5H,14H,19H-pyrido[2,1-i]dipyrrolo[2,1-c:2′,1′-l][1]oxa[4,7,10,13]tetraazacyclohexadecin-20-yl)propanamide] ({NH(1,3-benzodioxol-5-yl)-CO}-[Phe(3,5-F2)][aThr]P[Pip]A[Pro(4R-Me)]; ester 2-C): the MIC was less than 0.02 µM in assay [1]; 0.039 µM (≈ 0.0327 µg/mL) in assay [2]; 0.039 µM (≈ 0.0327 µg/mL) in assay [4] (setting [11]); less than 0.02 µM in assay [5] (setting [12]); less than 0.02 µM in assay [6] (setting [13]); 0.039 µM (≈ 0.0327 µg/mL) in assay [7]. For the same compound, in assay [3], the “Minimal Inhibitory Concentrations S. aureus USA 300 ΔClpP” value is more than 20 µM.
